Several values for one entry are separate records, joined by “and”; a condition that tells them apart may be missing. Equal entries are not always repeated.
Experiments:
hM4Di [1] = molecular target: T1, hM4Di (Homo sapiens, UniProt P08173, A203G/Y113C); test: [18F]JHU37107 PET in a monkey expressing hM4Di in the right amygdala; assay type: in vivo, rhesus monkey (Macaca mulatta); parameters: expressed in transfected cells; host or cells: rhesus monkey (Macaca mulatta) right amygdala, lentivirus-transduced neurons; details: mean
T1 sequence (P08173 1-479 Y113C/A203G): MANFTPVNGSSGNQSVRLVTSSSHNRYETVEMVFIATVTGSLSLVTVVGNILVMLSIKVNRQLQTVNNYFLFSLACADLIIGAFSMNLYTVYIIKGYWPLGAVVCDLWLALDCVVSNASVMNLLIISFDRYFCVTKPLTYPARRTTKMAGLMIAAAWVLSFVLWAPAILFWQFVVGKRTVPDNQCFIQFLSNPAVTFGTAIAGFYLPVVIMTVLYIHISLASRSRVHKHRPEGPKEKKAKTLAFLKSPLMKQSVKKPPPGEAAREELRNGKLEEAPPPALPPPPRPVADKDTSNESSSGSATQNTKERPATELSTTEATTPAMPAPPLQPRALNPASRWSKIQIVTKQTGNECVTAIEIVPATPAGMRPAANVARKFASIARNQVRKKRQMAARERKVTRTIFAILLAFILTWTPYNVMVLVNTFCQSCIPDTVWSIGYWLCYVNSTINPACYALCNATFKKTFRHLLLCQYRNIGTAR
Protocol: Lentivirus expressing an hM4Di-CFP fusion protein under an hSyn promoter[11] with a titer of >10^9 infectious particles was loaded into a 100 µL glass syringe (Hamilton Co., MA). The 31-gauge needle of the syringe was sheathed with a silica capillary (450 µm OD) to create a step 1 mm from the base of the aperture. The syringe was mounted in a Nanomite pump (Harvard Apparatus, Cambridge, MA). The needle was lowered through the incision in the dura mater to each of the pre-calculated target sites and 10 or 20 µL was infused at a rate of 1 µL min^−1. Each monkey received a total of between 10 and 12 injections (for a total injection volume of 120–240 µL). Post-infusion, the needle was left in situ for 10 min after each injection to allow pressure from the infusate to dissipate. The needle was then slowly removed. At the completion of the injection series the soft tissues were sutured together in anatomical layers.
(§1) [^18F]JHU37107 was prepared via the no-carrier-added ^18F-fluorination using an FDG Nuclear Interface module (Muenster, Germany). Briefly, 4 mg precursor (8-chloro-11-(4-ethylpiperazin-1-yl)-5H-dibenzo[b,e][1,4]diazepin-2-ol) and 8 mg tris(acetonitrile)cyclopentadienylruthenium(II)hexafluorophosphate (STREM, Boston, MA) were dissolved in ethanol (0.3 mL), the solution was heated at 85 °C for 25 min and evaporated to dryness under a stream of argon gas. The residue was dissolved in DMSO (0.5 mL) and acetonitrile (0.5 mL) and the solution was added to a dry complex of [^18F]fluoride and 9 mg 1,3-bis(2,6-di-i-propylphenyl)-2-chloroimidazolium chloride (STREM). The reaction mixture was heated at 130 °C for 30 min, diluted with mixture of 0.5 mL acetonitrile, 0.5 mL water and 0.03 mL TFA and injected onto a semi-preparative HPLC column (Luna C18, 10 micron, 10 mm × 250 mm) and eluted with 23:77 (v:v) acetonitrile:water (0.1% trifluoroacetic acid) at a flow rate of 10 mL min^−1. The radioactive peak corresponding to [^18F]JHU37107 (tR = 9.9 min) was collected in a reservoir containing 50 mL of water and 3 mL aq 8.4% NaHCO3 solution. The diluted product was loaded onto a solid phase extraction cartridge (Waters Oasis HLB plus light) and rinsed with 10 mL sterile saline. The product was eluted with 1000 µL of ethanol through a sterile 0.2 μm filter into a sterile, pyrogen-free vial and 10 mL saline was added through the same filter. The final product [^18F]JHU37107 was then analyzed by analytical HPLC (Luna C18, 10 micron, 4.6 mm × 250 mm; mobile phase 23:77 (v:v) acetonitrile:water (0.1% trifluoroacetic acid), flow rate of 3 mL min^−1; tR = 6.4 min) using a UV detector at 254 nm to determine the radiochemical purity (>95%) and specific radioactivity (152–188 GBq μmol^−1 (4100–5070 mCi μmol^−1)) at the time synthesis ended.
All macaque studies were acquired dynamically on the Focus 220 PET scanner (Siemens Medical Solutions, Knoxville, TN). The Focus 220 is a dedicated pre-clinical scanner with a transaxial FOV of 19 cm and an axial FOV of 7.5 cm. Image resolution is <2 mm within the central 5 cm FOV.
After initial evaluation the monkey was sedated with ketamine (10 mg kg^−1) followed by ketoprofen (as an analgesic) and glycopyrrolate (for salvia reduction), all weight dependent IM injections. The monkey would then be placed in the supine position, intubated with a tracheal tube. […] The monkey was always monitored while anesthetized. […]

DREADDs = test: [18F]JHU37107 PET in D1-DREADD transgenic mice; assay type: in vivo
Protocol: as §1, with “[…] .” for “tR = 6.4 min) using a UV detector at 254 nm to determine the radiochemical purity (>95%) and specific radioactivity (152–188 GBq μmol^−1 (4100–5070 mCi μmol^−1)) at the time synthesis ended.”
Total acquisition time was 60 min.

hM4Di [2] = molecular target: T1, hM4Di; test: [3H]clozapine competition binding, membranes of HEK-293 cells expressing hM4Di
[3] = tested on: untransfected HEK-293 cells; test: Negative controls of the functional assays: HEK-293 cells without DREADD; assay type: cell-based, human; details: HEK-293 cells
Protocol: BRET assays were performed to detect receptor ligand-induced Gαo1 protein activation. […] Forty-eight hour after transfection cells were harvested, washed and resuspended in phosphate-buffered saline (PBS). Approximately, 200,000 cells/well were distributed in 96-well plates, and 5 µM Coelenterazine H (substrate for luciferase) was added to each well. Five minutes after addition of Coelenterazine H, ligands were added to each well. The fluorescence of the acceptor was quantified (excitation at 500 nm and emission at 540 nm for 1-s recordings) in a PheraStar FSX plate reader (BMG Labtech) to confirm the constant expression levels across experiments. In parallel, the BRET signal from the same batch of cells was determined as the ratio of the light emitted by mVenus (510–540 nm) over that emitted by RLuc (485 nm). Results were calculated for the BRET change (BRET ratio for the corresponding drug minus BRET ratio in the absence of the drug) 5 min after the addition of the ligands.
Intracellular Ca^2+ concentration was monitored using the fluorescent Ca^2+ biosensor GCaMP6f. HEK-293 cells were transfected with 7 µg/dish of the cDNA encoding for hM3Dq (Addgene #89149) or hM4Di (Addgene #89150) and 7 µg/dish of GCaMP6. Forty-eight hours after transfection, cells were harvested, washed, resuspended in Mg^2+-free Locke’s buffer pH 7.4 (154 mM NaCl, 5.6 mM KCl, 3.6 mM NaHCO3, 2.3 mM CaCl2, and 5 mM HEPES) containing 5.6 mM of glucose and approximately 200,000 cells/well were distributed in black 96-well plates. Increasing concentrations of the indicated compound were added to the cells and fluorescence intensity (excitation at 480 nm, emission at 530 nm) was measured at 18-s intervals during 250 s using a PHERAstar FSX (BMG Labtech). The net change in intracellular Ca^2+ concentration was expressed as F − F0 where F is the fluorescence at a given concentration of ligand and F0 is the average of the baseline values (fluorescence values of buffer-treated wells).

hM3Dq = hM3Dq (Homo sapiens, UniProt P20309, A239G/Y149C); test: [3H]clozapine competition binding, membranes of HEK-293 cells expressing hM3Dq
Chain of hM3Dq (P20309 whole entry Y149C/A239G): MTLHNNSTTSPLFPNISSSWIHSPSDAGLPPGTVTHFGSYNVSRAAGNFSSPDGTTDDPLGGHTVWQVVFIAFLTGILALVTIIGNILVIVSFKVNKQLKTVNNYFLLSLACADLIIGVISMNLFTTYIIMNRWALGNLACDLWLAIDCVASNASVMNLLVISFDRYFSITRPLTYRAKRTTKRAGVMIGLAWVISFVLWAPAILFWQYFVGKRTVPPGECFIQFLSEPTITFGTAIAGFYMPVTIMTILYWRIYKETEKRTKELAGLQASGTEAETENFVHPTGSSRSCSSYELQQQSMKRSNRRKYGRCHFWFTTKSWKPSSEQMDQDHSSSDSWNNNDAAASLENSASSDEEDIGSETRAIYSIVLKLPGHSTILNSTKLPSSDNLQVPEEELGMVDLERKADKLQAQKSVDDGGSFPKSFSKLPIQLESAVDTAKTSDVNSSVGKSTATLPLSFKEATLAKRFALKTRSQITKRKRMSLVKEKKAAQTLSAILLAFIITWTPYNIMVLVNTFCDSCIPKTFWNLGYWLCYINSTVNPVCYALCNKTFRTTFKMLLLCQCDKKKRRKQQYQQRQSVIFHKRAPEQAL

**Q.** For `CCN1CCN(C2=Nc3cc(Cl)ccc3Nc3ccc([18F])cc32)CC1` [[18F]JHU37107], which “PET binding value, PFC mean (Figure 4, second Panel l)” value (hM4Di [1]; PFC) is on record?
**A.** 1.094

**Q.** And the “PET binding value, PUT mean (Figure 4, second Panel l)” value (hM4Di [1]; PUT)?
**A.** 1.196

**Q.** What about the “PET binding value, hM4Di mean (Figure 4, second Panel l)” value (hM4Di [1]; hM4Di region) of the same molecule?
**A.** 2.423

**Q.** And the “PET binding value, CB (Figure 4 Panel D, first group)” value (DREADDs; CB, individual values)?
**A.** 0.271 and 0.3157

**Q.** What about the “PET binding value, CB (Figure 4 Panel D, second group)” value (DREADDs; CB, individual values) of the same molecule?
**A.** 0.004 and 0.238

**Q.** What about the “PET binding value, CB (Figure 4 Panel D, third group)” value (DREADDs; CB, individual values) of the same molecule?
**A.** 0.02536 and 0.05718 and 0.04755

**Q.** What about the “PET binding value, CTX (Figure 4 Panel D, first group)” value (DREADDs; CTX, individual values) of the same molecule?
**A.** 0.3049 and 0.3358

**Q.** What about the “PET binding value, CTX (Figure 4 Panel D, second group)” value (DREADDs; CTX, individual values) of the same molecule?
**A.** 0.244 and 0.22

**Q.** What about the “PET binding value, CTX (Figure 4 Panel D, third group)” value (DREADDs; CTX, individual values) of the same molecule?
**A.** 0.4367 and 0.4206 and 0.3996

**Q.** And the “PET binding value, baseline (Figure 4 Panel D)” value (DREADDs; first line (values equal the STR values of the third group))?
**A.** 1.736 and 1.664 and 1.424 and 1.7038 and 1.723 and 1.422

**Q.** What about the “PET binding value, baseline (Figure 4 Panel D)” value (DREADDs; second line (values equal the CTX values of the third group)) of the same molecule?
**A.** 0.4367 and 0.4206 and 0.3996

**Q.** And the “PET binding value, blocked (Figure 4 Panel D)” value (from here on “PET binding value, blocked”) (DREADDs; first line (STR by position))?
**A.** 0.6764 and 0.9438 and 0.6607 and 0.8306

**Q.** What about the “PET binding value, blocked” value (DREADDs; second line (CTX by position)) of the same molecule?
**A.** 0.2742 and 0.4049

**Q.** What about the “PET binding value, blocked” value (DREADDs; third line (CB by position)) of the same molecule?
**A.** 0.2463 and 0.2748

**Q.** Which Ki (hM4Di [2]) does the source give for `CCN1CCN(C2=Nc3ccccc3Nc3ccccc32)CC1` [C22, reference compound] here?
**A.** 9 nM

**Q.** `C[N+]1([O-])CCN(C2=Nc3cc(Cl)ccc3Nc3ccccc32)CC1` [CNO, clozapine N-oxide, reference compound] was tested. Which “functional response, BRET (Go-alpha-Rluc8, beta1, gamma2-mVenus), no DREADD” value [3] did it give?
**A.** did not show any functional response

**Q.** What about the “functional response, GCaMP6f, no DREADD” value [3] of the same molecule?
**A.** did not show any functional response

**Q.** Which Ki (hM3Dq) does the source give for `CCN1CCN(C2=Nc3cc(Cl)ccc3Nc3ccc(F)cc32)CC1` [JHU37107, 8-Chloro-11-(4-ethylpiperazin-1-yl)-2-fluoro-5H-dibenzo[b,e][1,4]diazepine] here?
**A.** 10.5 nM

**Q.** What about the Ki (hM4Di [2]) of the same molecule?
**A.** 23.5 nM

Source: PMC6788984, “High-potency ligands for DREADD imaging and activation in rodents and monkeys” (Nature Communications, 2019)
